Data as given in PMC12396409, “Screening and hit evaluation of a microbial metabolite library against the pathogenic Plasmodium falciparum and Toxoplasma gondii parasites” (International Journal for Parasitology: Drugs and Drug …, 2025).
Like-named read-outs stand apart in the source and are kept apart here.

Columns and labels:
[1] = system: T. gondii RH strain (RH-Tub-eYFP) tachyzoites; experiment: microbe, parasite or virus in culture; type: cell-based, Toxoplasma gondii; conditions: 72 h; for percent parasite growth at 2 µg/mL: Toxoplasma gondii
[2] = system: P. falciparum 3D7 parasites; experiment: P. falciparum growth inhibition assay, 1-cycle (72 h treatment), SYBR DNA staining (library screen at 2 μg/mL and dose-response); type: cell-based, Plasmodium falciparum; conditions: for activity at 2 µg/mL: Plasmodium falciparum
[3] = system: P. falciparum 3D7 parasites; experiment: P. falciparum growth inhibition assay, 2-cycle (120 h treatment), delayed-death screen and dose-response; type: cell-based, Plasmodium falciparum; conditions: for activity at 2 µg/mL: Plasmodium falciparum
[4] = T. gondii, screen at 2 μg/mL, replicate 1, read-out: Tg_72h_%Growth_Rep1
[5] = T. gondii, screen at 2 μg/mL, replicate 2, read-out: Tg_72h_%Growth_Rep2
[6] = library screen at 2 μg/mL, % growth, replicate 1
[7] = library screen at 2 μg/mL, % growth, replicate 2
[8] = library screen at 2 μg/mL, 72 h, % growth, replicate 1
[9] = library screen at 2 μg/mL, 72 h, % growth, replicate 2
[10] = library screen at 2 μg/mL, 120 h, % growth, replicate 1
[11] = library screen at 2 μg/mL, 120 h, % growth, replicate 2
[12] = 3D7, P. falciparum, 72 h, screen at 2 μg/mL, replicate 1, read-out: Pf_72h_%Growth_Rep1
[13] = 3D7, P. falciparum, 72 h, screen at 2 μg/mL, replicate 2, read-out: Pf_72h_%Growth_Rep2
[14] = 3D7, P. falciparum, 120 h, screen at 2 μg/mL, replicate 1, read-out: Pf_120h_%Growth_Rep1
[15] = 3D7, P. falciparum, 120 h, screen at 2 μg/mL, replicate 2, read-out: Pf_120h_%Growth_Rep2

## CCCCCCC(=O)CCCCCC/C=C/C[C@@H](O)[C@H](O)[C@@](N)(CO)C(=O)O [BIA-M1219]
[1]; T. gondii, parasite screen at 2 μg/mL, % growth, replicate 1
  Tg_72h_%Growth_Rep1: 113.89%
[1]; T. gondii, parasite screen at 2 μg/mL, % growth, replicate 2
  Tg_72h_%Growth_Rep2: 86.95%
[2]; P. falciparum 3D7, 72 h, parasite screen at 2 μg/mL, % growth, replicate 1
  Pf_72h_%Growth_Rep1: 77.20%
[2]; P. falciparum 3D7, 72 h, parasite screen at 2 μg/mL, % growth, replicate 2
  Pf_72h_%Growth_Rep2: 44.93%
[3]; P. falciparum 3D7, 120 h, parasite screen at 2 μg/mL, % growth, replicate 1
  Pf_120h_%Growth_Rep1: 68.80%
[3]; P. falciparum 3D7, 120 h, parasite screen at 2 μg/mL, % growth, replicate 2
  Pf_120h_%Growth_Rep2: 36.84%

## CC(=O)OC1CCC(C)C2C1C=C(C)C1C(C)=CCCC(C)=CC3(C)C=C(C)C(C)CC34OC(=O)C(=C(O)C12C)C4=O (stereo not drawn) [Tetromycin A]
[1]; T. gondii, screen at 2 μg/mL, replicate 1
  Tg_72h_%Growth_Rep1: 141.34%
[1]; T. gondii, screen at 2 μg/mL, replicate 2
  Tg_72h_%Growth_Rep2: 89.51%
[2]; P. falciparum, 72 h, screen at 2 μg/mL, replicate 1
  Pf_72h_%Growth_Rep1: 87.03%
[2]; P. falciparum, 72 h, screen at 2 μg/mL, replicate 2
  Pf_72h_%Growth_Rep2: 84.23%
[3]; P. falciparum, 120 h, screen at 2 μg/mL, replicate 1
  Pf_120h_%Growth_Rep1: 96.09%
[3]; P. falciparum, 120 h, screen at 2 μg/mL, replicate 2
  Pf_120h_%Growth_Rep2: 91.15%

## C=C1[C@@H](C)[C@H]2[C@H](Cc3ccccc3)NC(=O)[C@]23[C@H](OC(C)=O)/C=C/[C@@](C)(O)C(=O)[C@@H](C)C/C=C/[C@H]3[C@@H]1O [Cytochalasin D]
[1]; [4]
  percent parasite growth at 2 µg/mL: 2.17%
[1]; [5]
  percent parasite growth at 2 µg/mL: 2.65%
[2]; 3D7, 72 h, P. falciparum, 72 h, screen at 2 μg/mL, replicate 1, read-out: Pf_72h_%Growth_Rep1
  activity at 2 µg/mL: 6.33%
[2]; 3D7, 72 h, P. falciparum, 72 h, screen at 2 μg/mL, replicate 2, read-out: Pf_72h_%Growth_Rep2
  activity at 2 µg/mL: 2.44%
[3]; 3D7, 120 h, P. falciparum, 120 h, screen at 2 μg/mL, replicate 1, read-out: Pf_120h_%Growth_Rep1
  activity at 2 µg/mL: 3.12%
[3]; 3D7, 120 h, P. falciparum, 120 h, screen at 2 μg/mL, replicate 2, read-out: Pf_120h_%Growth_Rep2
  activity at 2 µg/mL: 4.41%

## C[C@H]1NC(=O)[C@@H]2CCCCN2C(=O)CN(C)C(=O)CNC(=O)[C@@H]2CCCCN2C(=O)[C@H](NC(=O)c2nc3ccccc3cc2O)[C@@H](C)NC(=O)[C@@H]2CCCCN2C(=O)CN(C)C(=O)CNC(=O)[C@@H]2CCCCN2C(=O)[C@@H]1NC(=O)c1nc2ccccc2cc1O [Quinaldopeptin]
[1]; T. gondii, parasite screen 2 μg/mL, % growth, replicate 1
  Tg_72h_%Growth_Rep1: 3.09%
[1]; T. gondii, parasite screen 2 μg/mL, % growth, replicate 2
  Tg_72h_%Growth_Rep2: 0.65%
[2]; P. falciparum, 72 h, parasite screen 2 μg/mL, % growth, replicate 1
  Pf_72h_%Growth_Rep1: 9.69%
[2]; P. falciparum, 72 h, parasite screen 2 μg/mL, % growth, replicate 2
  Pf_72h_%Growth_Rep2: 1.67%
[3]; P. falciparum, 120 h, parasite screen 2 μg/mL, % growth, replicate 1
  Pf_120h_%Growth_Rep1: 19.16%
[3]; P. falciparum, 120 h, parasite screen 2 μg/mL, % growth, replicate 2
  Pf_120h_%Growth_Rep2: 8.74%

## C[C@H]1C(=O)N2c3ccccc3[C@@]3(O)C[C@@H]4C(=O)N[C@](C)(c5nc6ccccc6c(=O)n54)N1[C@@H]23 [Fumiquinazoline D]
[1]; library screen at 2 μg/mL, % growth, replicate 1, read-out: Tg_72h_%Growth_Rep1
  percent parasite growth at 2 µg/mL: 124%
[1]; library screen at 2 μg/mL, % growth, replicate 2, read-out: Tg_72h_%Growth_Rep2
  percent parasite growth at 2 µg/mL: 109%
[2]; 3D7, library screen at 2 μg/mL, 72 h, % growth, replicate 1, read-out: Pf_72h_%Growth_Rep1
  activity at 2 µg/mL: 76.9%
[2]; 3D7, library screen at 2 μg/mL, 72 h, % growth, replicate 2, read-out: Pf_72h_%Growth_Rep2
  activity at 2 µg/mL: 108%
[3]; 3D7, library screen at 2 μg/mL, 120 h, % growth, replicate 1, read-out: Pf_120h_%Growth_Rep1
  activity at 2 µg/mL: 80.2%
[3]; 3D7, library screen at 2 μg/mL, 120 h, % growth, replicate 2, read-out: Pf_120h_%Growth_Rep2
  activity at 2 µg/mL: 101%

## CN1C(=O)c2ccccc2-n2c(nc3ccccc3c2=O)[C@@H]1Cc1ccccc1 [Benzomalvin A]
[1]; [6]
  Tg_72h_%Growth_Rep1: 76.13%
[1]; [7]
  Tg_72h_%Growth_Rep2: 90.69%
[2]; [8]
  Pf_72h_%Growth_Rep1: 68.69%
[2]; [9]
  Pf_72h_%Growth_Rep2: 85.94%
[3]; [10]
  Pf_120h_%Growth_Rep1: 152.22%
[3]; [11]
  Pf_120h_%Growth_Rep2: 94.98%

## C[C@H]1[C@H](C)CC[C@]2(C(=O)O)CC[C@]3(C)C(=CC[C@@H]4[C@@]5(C)CC[C@H](O)C(C)(C)[C@@H]5CC[C@]43C)[C@H]12 [Ursolic acid]
[1]; read-out: Tg_72h_%Growth_Rep1
  percent parasite growth at 2 µg/mL: 96%
[1]; read-out: Tg_72h_%Growth_Rep2
  percent parasite growth at 2 µg/mL: 92.8%
[2]; [12]
  activity at 2 µg/mL: 77.7%
[2]; [13]
  activity at 2 µg/mL: 84%
[3]; [14]
  activity at 2 µg/mL: 155%
[3]; [15]
  activity at 2 µg/mL: 79.7%

## COC(=O)[C@]1(Cc2ccc3c(c2)C[C@H](O)C(C)(C)O3)OC(=O)C(O)=C1c1ccc(O)cc1 [Butyrolactone V]
[1]; [4]
  percent parasite growth at 2 µg/mL: 130%
[1]; [5]
  percent parasite growth at 2 µg/mL: 90%
[2]; [12]
  activity at 2 µg/mL: 83.9%
[2]; [13]
  activity at 2 µg/mL: 90.6%
[3]; [14]
  activity at 2 µg/mL: 100%
[3]; [15]
  activity at 2 µg/mL: 94.5%

## CC(=O)[C@H]1c2c(c(O)c3c(O)cccc3c2-c2c3c(c(O)c4c(O)cccc24)C(=O)C[C@](C)(O)[C@H]3C(C)=O)C(=O)C[C@]1(C)O [A 39183A]
[1]; [6]
  Tg_72h_%Growth_Rep1: 90.59%
[1]; [7]
  Tg_72h_%Growth_Rep2: 100.22%
[2]; [8]
  Pf_72h_%Growth_Rep1: 2.40%
[2]; [9]
  Pf_72h_%Growth_Rep2: 2.28%
[3]; [10]
  Pf_120h_%Growth_Rep1: 5.28%
[3]; [11]
  Pf_120h_%Growth_Rep2: -2.60%
